This assay deals with T1, Proto-oncogene tyrosine-protein kinase Src [84-145] (UniProt P12931).
T1 construct: 84-145
In words: Surface Plasmon Resonance Experiment. As to the method: Experimental method: Surface plasmon resonance test was carried out on BIACORE T200 instrument (GE Company). Fresh purified grade Src kinase SH3 domain protein (concentration 2 mg/ml) was diluted to 0.1 mg/ml with 10 mM CH3COONa (pH 4.2) and then SH3 protein was coupled to the CM5 chip by standard amino coupling methods. The compounds of the invention were diluted in a gradient using a buffer solution (20 mM Tris-HCl, PH 8.0, 100 mM NaCl) for 60 seconds and dissociated for 120 seconds at a flow rate of […], respectively. The changes in response values over time were recorded and analyzed by the BIA Evaluation Software (GE Healthcare) program to obtain the dissociation constants KD for the different compounds with SH3 protein.

One may read the Kd as the equilibrium constant for the complex coming apart. A higher Kd goes with lower affinity.

The compound `COc1cnc2c(c1)c(C(N)=O)c(CNC(=N)N)n2C` [US20250289812, Example SYY-C036] came in with a Kd of less than 1000 nM.

`CCOC(=O)c1c(CNC(=N)N)n(C)c2cc(C3CC4CCC3C4)ccc12` (configuration not stated) [US20250289812, Example SYY-C069] showed a Kd of less than 1000 nM.

Values taken from BindingDB's records for patent US20250289812 (Shanghai Institute Of Materia Medica, 2025).
